Laboratory results reported in patent publication US20260200849A1, “CATIONIC LIPIDS AND PREPARATION METHOD THEREOF” (RiboX Therapeutics HK Limited, priority 2024, published 2026).
Where “and” joins values, the source holds several entries; their conditions need not be identical. Equal entries are not always repeated.

Legend:
[1] = test system: Balb/c mice; experiment: In vivo expression by IV, 0.05 mg/kg luciferase RNA-LNPs, IVIS luminescence; conditions: Formulation No. 010, RNA No. 331, female Balb/c mice, 0.05 mg*kg−1 intravenous; for Whole body at 24 h (p/s) (Mean): 24 hours post injection; for Whole body at 72 h (p/s) (Mean): 72 hours post injection
How it was run: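 IVIS bioluminescence was read after IP luciferin (15 mg/ml): whole-body at 24 and 72 h, or whole-body/liver/spleen at 24 h. Dosing was a single IV injection of 0.05 mg*kg−1 RNA-LNPs encoding firefly luciferase into 7-8 week old female Balb/c mice, N=3.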

[2] = test system: C57BL/6J mice; experiment: In vivo expression by IM, luciferase RNA-LNPs, whole-body/injection site muscle/organ luminescence; conditions: IM 1.0 mg/kg, 24 h post injection, male C57BL/6J mice N=3, Formulation 001, RNA 331
Method: 6-8 week old, male C57BL/6J mice (N=3) were injected with 1.0 mg*kg−1 of RNA-LNPs encoding for firefly-luciferase by intramuscular injection. At 24-hours post injection, animals were intraperitoneally injected with 15 mg/ml of Luciferin substrate and whole-body/injection site muscle/liver/spleen/kidney/heart/lung luminescence were determined by a bioluminescent in vivo imaging system (IVIS).

[3] = test system: C57BL/6J mice; experiment: In vivo expression by ID, whole-body/injection site skin/lymph node luminescence; conditions: intradermal 0.15 mg/kg, 72 h post injection, female C57BL/6J mice N=3, Formulation 001, RNA 331
Method: 7-8 week old, female C57BL/6J mice (N=3) were injected with 0.15 mg*kg−1 of RNA-LNPs encoding for firefly-luciferase by intradermal injection. At 72-hours post injection, animals were intraperitoneally injected with 15 mg/mi of Luciferin substrate and whole-body/injection site skin/lymph node luminescence were determined by a bioluminescent in vivo imaging system (IVIS).

[4] = test system: MCP-1; experiment: In vivo tolerability by IM: serum MCP-1 by Luminex; conditions: IM 1.0 mg/kg, male C57BL/6J mice N=3, Formulation 001, RNA 331
Method: (§1) 6-8 week old, male C57BL/6J mice (N=3) were injected with 1.0 mg*kg−1 of RNA-LNPs encoding for firefly-luciferase by intramuscular injection. At 2- and 24-hours post injection, about 40 μL blood was harvested and immediately added to the procoagulant containing tube. Stand for 30 min at room temperature and then centrifuged at 2500 g×10 min to obtain serum. About 15 μL serum samples were aliquoted for cytokine (MCP-1 and IL-6) detection by Luminex (ProcartaPlex Mouse 2-plex, Thermo). PBS group as negative control.

[5] = test system: IL-6; experiment: In vivo tolerability by IM: serum IL-6 by Luminex; conditions: IM 1.0 mg/kg, male C57BL/6J mice N=3, Formulation 001, RNA 331
Method: as §1

[6] = RNA encapsulation efficacy (EE %) by Quant-IT Ribogreen kit; format: physicochemical; conditions: LNP
Method: (§2) The LNP size and polydispersity index (PDI), determined by dynamic light scattering (DLS), and zeta potential were measured by a Zetasizer machine (Malvern). RNA concentration and encapsulation efficacy (EE %) were analyzed by the Quant-IT Ribogreen kit by calculating the percentage encapsulation at 100%—(RNA-LNPs/RNA-LNPs with Triton X-100).

[7] = LNP size and polydispersity index (PDI) by dynamic light scattering (Zetasizer); format: physicochemical; conditions: for Size (nm): Formulation No. 010 (Ionizable lipid:DSPC:cholesterol:DSPE-PEG2000 = 38:30:30:2, N/P 6), RNA No. 331
Method: as §2

[8] = test system: Hep G2 cells; experiment: In vitro toxicity: Hep G2 cell viability by CellTiter-Glo; format: cell-based; conditions: 72 hours post transfection, cell only = 100%
Method: 2E5 Hep G2 cells were transfected with 1 μg/mL RNA-LNPs. At 72 hours post transfection, cell viability (2-well repeat) was determined with the CellTiter-Glo® reagent kit, according to the kit protocol, measured by a luminometer. Cell only as control (100%).
The cell viability was calculated according to the following formula: […]

[9] = test system: injection site skin; experiment: In vivo tolerability after intradermal injection: H&E staining of injection site skin; parameters: species or system C57BL/6J mice; key to Infiltration, mononuclear cells, dermis/subcutaneous, focal, Grade / Edema, subcutaneous, focal, Grade / Erosion, focal, Grade / Skin, Grade: 1==minimal; 2=mild; 3=moderate; 4=marked; 5=severe; N=Normal; NA=Not applicable; —=No data; conditions: intradermal 0.15 mg/kg, 72 h, Formulation 001, RNA 331; for Edema, subcutaneous, focal, Grade / Erosion, focal, Grade / Infiltration, mononuclear cells, dermis/subcutaneous, focal, Grade: per animal; for Total score: sum of lesion grades of the group (N=3)
Method: 7-8 week old, female C57BL/6J mice (N=3) were injected with 0.15 mg*kg−1 of RNA-LNIPs encoding for firefly-luciferase by intradermal injection. At 72-hours post injection, injection site skin from each animal was collected in 10% formalin, for H&E staining. PBS group (N=2) as control. (Note: 1==minimal, 2=mild, 3=moderate, 4=marked, 5=severe; N=Normal; NA=Not applicable; —=No data)

[10] = test system: Hep G2 cells; experiment: In vitro expression: luciferase activity in Hep G2 cells transfected with RNA-LNPs; format: cell-based; conditions: 100 ng/mL RNA-LNPs, 72 hours post transfection
Method: 2E5 Hep G2 cells were transfected with 100 ng/mL of RNA-LNPs encoding for firefly-luciferase. At 72 hours post transfection, the cells were washed and lysed. The luciferase expression (2-well repeat) was determined in the cell lysates with the luciferase assay reagent kit (Promega), according to the kit protocol, luciferase activity was measured by a luminometer.

[11] = Formulation No. 001, RNA No. 331
[12] = Formulation No. 010, RNA No. 331
[13] = 1 μg/mL RNA-LNPs, Formulation 001, RNA 331
[14] = Formulation No. 010, RNA No. 331, 1 μg/mL RNA-LNPs
[15] = Formulation No. 010, RNA No. 331 (firefly-luciferase)

Row | EE (%) [6, 11] [%] | EE (%) [6, 12] [%] | PDI [7, 11] | Size [7, 11] [nm] | Structure (SMILES) | Whole body at 24 h (p/s) (Mean) [1] | Whole body at 72 h (p/s) (Mean) [1] | Heart (p/s) [2] [p/s] | Injection site muscle (p/s) [2] [p/s] | Kidney (p/s) [2] [p/s] | Liver (p/s) [2] [p/s] | Lung (p/s) [2] [p/s] | Spleen (p/s) [2] [p/s] | Whole body (p/s) [2] [p/s] | Injection site Skin (p/s) [3] [p/s] | Lymph node (p/s) [3] [p/s] | Whole body (p/s) [3] [p/s] | MCP-1 at 2 h [4] [pg/mL] | MCP-1 at 24 h [4] [pg/mL] | IL-6 at 2 h [5] [pg/mL] | IL-6 at 24 h [5] [pg/mL] | further results
1 | 92.16 | 95.09 | 0.10 | 76.05 | CCCCCCCC/C=C\CCCCCCCC(=O)NC(COC(=O)NCCN1CCCCCC1)C(=O)OCCCCCCCCOC(=O)C(CCCCCC)CCCCCCCC (stereo not drawn) [Lipid 701] | 4.00E+08 | 1.08E+08 | 9.37E+05 | 5.32E+08 | 2.70E+07 | 2.35E+08 | 2.10E+06 | 1.24E+08 | 8.27E+08 | 3.34E+07 | 6.94E+06 | 6.46E+07 | 628 | 4620 | 21.2 | 108 | Size (nm) [7]: 60.60 nm; PDI [7, 12]: 0.07; In vitro cell viability (%) (Mean) [8, 13]: 74.24%; In vitro cell viability (%) (Mean) [8, 14]: 96.43%; Edema, subcutaneous, focal, Grade [9]: — and 1 (2×); Erosion, focal, Grade [9]: —; Infiltration, mononuclear cells, dermis/subcutaneous, focal, Grade [9]: 1; Total score [9]: 5; In vitro Expression (Mean) ([10]; Formulation 001, RNA 331): 6.00E+05; In vitro Expression (Mean) [10, 15]: 3.96E+05
2 | 96.53 | 96.83 | 0.05 | 65.33 | CCCCC/C=C\C/C=C\CCCCCCCC(=O)NC(COC(=O)NCCN1CCCCC1)C(=O)OCCCCCC(=O)OCC(CCCCCCCC)CCCCCCCCCC (stereo not drawn) [Lipid 728] | 1.86E+08 | 5.78E+07 | 4.42E+05 | 5.61E+08 | 1.42E+07 | 7.48E+07 | 1.56E+06 | 3.40E+07 | 6.11E+08 | 4.04E+06 | 1.03E+06 | 3.58E+07 | 421 | 3740 | 24.3 | 143 | Size (nm) [7]: 56.88 nm; PDI [7, 12]: 0.09; In vitro cell viability (%) (Mean) [8, 13]: 71.13%; In vitro cell viability (%) (Mean) [8, 14]: 90.20%; Edema, subcutaneous, focal, Grade [9]: — (2×) and 1; Erosion, focal, Grade [9]: —; Infiltration, mononuclear cells, dermis/subcutaneous, focal, Grade [9]: 1; Total score [9]: 4; In vitro Expression (Mean) ([10]; Formulation 001, RNA 331): 3.37E+05; In vitro Expression (Mean) [10, 15]: 4.71E+05
